Earlier results in patent publication US8198326B2, “Phenolic antiseptic compositions and methods of use” (3M Innovative Properties Company, priority 2004, dated 2012).

Tested on: methicillin resistant staphylococcus aureus
Settings: reaction of free iodine with the organic load

povidone-iodine
decrease of activity on addition of nasal secretions: 80-90%
